Assay results as given in patent US6608086B2, “Dihydropyridines and new uses thereof” (Synaptic Pharmaceutical Corporation, priority 1993, dated 2003).
Structures can show the parent of a compound that is named as a salt. Where two headings read alike, the source gives them in different places.

Key:
[1] = molecular target: T1, α1B Human Adrenergic Receptor (Homo sapiens, UniProt P35368); experiment: Radioligand binding, [3H]prazosin, cloned human α1B adrenergic receptor
T1 construct: The entire coding region of α1B (1563 bp); expressed in transfected cells
T1 sequence (P35368 1-520): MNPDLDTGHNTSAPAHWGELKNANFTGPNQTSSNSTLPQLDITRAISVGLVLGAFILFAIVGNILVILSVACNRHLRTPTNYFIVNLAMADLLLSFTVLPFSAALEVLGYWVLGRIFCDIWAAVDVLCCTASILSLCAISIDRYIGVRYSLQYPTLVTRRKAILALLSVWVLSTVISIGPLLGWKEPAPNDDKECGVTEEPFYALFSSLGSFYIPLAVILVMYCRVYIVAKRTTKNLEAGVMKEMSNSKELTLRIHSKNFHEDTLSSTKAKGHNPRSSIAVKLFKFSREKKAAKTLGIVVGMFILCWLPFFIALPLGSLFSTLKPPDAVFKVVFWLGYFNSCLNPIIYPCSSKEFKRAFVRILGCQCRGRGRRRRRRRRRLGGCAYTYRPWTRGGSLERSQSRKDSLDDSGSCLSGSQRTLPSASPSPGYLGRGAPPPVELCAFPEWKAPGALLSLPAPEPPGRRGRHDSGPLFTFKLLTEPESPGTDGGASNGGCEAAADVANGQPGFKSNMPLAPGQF
Method in brief: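 Membranes from stably transfected LM(tk−) cells, resuspended in 50 mM Tris-HCl, 1 mM MgCl2, 0.1% ascorbic acid, pH 7.5, were incubated with 0.5 nM [3H]prazosin for 20 min at 37° C. Nonspecific binding defined with 10 μM phentolamine; bound ligand separated by GF/B filtration.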

[2] = molecular target: T2, α2A receptor (Homo sapiens, UniProt P08913); experiment: Competition binding, [3H]rauwolscine, human α2A receptor; conditions: [3H]rauwolscine
T2 construct: host or cells: LM(tk-) cells, line L-α2A
T2 sequence (P08913 1-465): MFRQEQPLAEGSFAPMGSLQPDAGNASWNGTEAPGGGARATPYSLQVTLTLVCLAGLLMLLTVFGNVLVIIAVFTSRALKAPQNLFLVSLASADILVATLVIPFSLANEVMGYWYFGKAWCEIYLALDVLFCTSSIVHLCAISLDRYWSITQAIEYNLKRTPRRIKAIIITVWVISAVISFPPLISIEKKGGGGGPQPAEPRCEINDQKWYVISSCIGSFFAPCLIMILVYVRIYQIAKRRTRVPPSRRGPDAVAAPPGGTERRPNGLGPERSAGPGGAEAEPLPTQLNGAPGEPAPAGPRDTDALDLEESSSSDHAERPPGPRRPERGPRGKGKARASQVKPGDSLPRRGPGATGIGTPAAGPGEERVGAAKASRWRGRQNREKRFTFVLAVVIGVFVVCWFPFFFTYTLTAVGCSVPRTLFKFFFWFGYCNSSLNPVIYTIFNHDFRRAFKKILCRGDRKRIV
Method in brief: (§1)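 Using 25 mM glycylglycine buffer at pH 7.6 (room temperature), membranes from LM(tk−) cells carrying α2A, α2B or α2C were competed against 0.5 nM [3H]rauwolscine to equilibrium. Separation was by GF/B filtration; phentolamine (10 μM) set nonspecific binding.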

[3] = molecular target: T3, α2B receptor (Homo sapiens, UniProt P18089); experiment: Competition binding, [3H]rauwolscine, human α2B receptor; conditions: [3H]rauwolscine
T3 construct: host or cells: LM(tk-) cells, line L-NGC-α2B
T3 sequence (P18089 1-450): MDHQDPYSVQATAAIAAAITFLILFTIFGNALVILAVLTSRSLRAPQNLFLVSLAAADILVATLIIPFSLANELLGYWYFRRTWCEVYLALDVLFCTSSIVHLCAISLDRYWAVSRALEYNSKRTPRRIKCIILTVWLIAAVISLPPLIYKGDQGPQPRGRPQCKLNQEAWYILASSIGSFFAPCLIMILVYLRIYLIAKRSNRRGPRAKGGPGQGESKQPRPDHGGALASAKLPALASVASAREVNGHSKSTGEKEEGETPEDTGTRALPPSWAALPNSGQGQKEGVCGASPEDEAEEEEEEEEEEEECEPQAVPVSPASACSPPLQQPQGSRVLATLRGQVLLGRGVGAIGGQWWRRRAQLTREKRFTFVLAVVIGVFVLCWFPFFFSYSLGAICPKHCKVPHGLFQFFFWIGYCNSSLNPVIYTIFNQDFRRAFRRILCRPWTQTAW
Method in brief: as §1

[4] = molecular target: T4, α2C receptor (Homo sapiens, UniProt P18825); experiment: Competition binding, [3H]rauwolscine, human α2C receptor; conditions: [3H]rauwolscine
T4 construct: host or cells: LM(tk-) cells, line L-α2C
T4 sequence (P18825 1-462): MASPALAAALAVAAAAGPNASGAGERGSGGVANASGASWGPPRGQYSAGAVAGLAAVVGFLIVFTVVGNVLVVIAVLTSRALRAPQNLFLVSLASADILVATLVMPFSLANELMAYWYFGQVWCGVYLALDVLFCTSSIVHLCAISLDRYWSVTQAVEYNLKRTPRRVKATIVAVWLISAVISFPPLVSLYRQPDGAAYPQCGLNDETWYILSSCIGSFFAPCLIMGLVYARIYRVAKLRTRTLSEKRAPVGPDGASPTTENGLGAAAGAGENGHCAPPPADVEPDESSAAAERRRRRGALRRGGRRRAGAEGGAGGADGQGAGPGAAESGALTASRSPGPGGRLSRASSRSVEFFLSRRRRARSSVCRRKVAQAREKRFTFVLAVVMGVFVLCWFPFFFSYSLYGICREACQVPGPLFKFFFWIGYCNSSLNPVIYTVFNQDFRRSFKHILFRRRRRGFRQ
Method in brief: as §1

[5] = cloned human receptor in LM(tk-) cell membranes, SEM and n in lines below
[6] = LM(tk-) cell line L-α2A, SEM and n in lines below
[7] = LM(tk-) cell line L-NGC-α2B, SEM and n in lines below
[8] = LM(tk-) cell line L-α2C, SEM and n in lines below
[9] = cloned human α1B receptor, LM(tk−) cell membranes
[10] = human α2A receptor, LM(tk−) cells
[11] = human α2B receptor, LM(tk−) cells
[12] = human α2C receptor, LM(tk−) cells
[13] = cloned human α1B receptor, LM(tk−) cell membranes, read-out: pKi alpha-1 1b (converted)
[14] = human α2A receptor, LM(tk−) cells, read-out: pKi alpha-2 2a (converted)
[15] = human α2B receptor, LM(tk−) cells, read-out: pKi alpha-2 2b (converted)
[16] = human α2C receptor, LM(tk−) cells, read-out: pKi alpha-2 2c (converted)

CCC1=C(C(=O)NCCCCN2CCC(c3ccccc3)CC2)C(c2ccc([N+](=O)[O-])cc2)C(C(N)=O)=C(C)N1.Cl.O (stereo not shown) [Example 77, 5-Carboxamido-2-ethyl-1,4-dihydro-6-methyl-4-(4-nitro)phenyl-3-(N-(4-(4-phenylpiperidin-1-yl)butyl))carboxamidopyridine hydrochloride hydrate]
pKi alpha-1 1b [1, 5]: 7.16 | pKi alpha-2 2a [2, 6]: 6.95 | pKi alpha-2 2b [3, 7]: 7.08 | pKi alpha-2 2c [4, 8]: 7.42

COC(=O)C1=C(C)NC(c2ccccc2)=C(C(=O)NCCCN2CCC(c3ccccc3)CC2)C1c1ccc([N+](=O)[O-])cc1.Cl (stereo not shown) [Example 79, 1,4-Dihydro-5-methoxycarbonyl-6-methyl-4-(4-nitro)phenyl-2-phenyl-3-(N-(3-(4-phenylpiperidin-1-yl)propyl)) carboxamidopyridine hydrochloride]
pKi alpha-1 1b [1, 5]: 7.33 | pKi alpha-2 2a [2, 6]: 6.84 | pKi alpha-2 2b [3, 7]: 7.28 | pKi alpha-2 2c [4, 8]: 7.21

CCOC(=O)C1=C(CNCCCN2CCC(c3ccccc3)(c3ccccc3)CC2)NC(C)=C(C(=O)OC)C1c1ccc([N+](=O)[O-])cc1.Cl.O (stereo not shown) [Example 90, 3-Ethoxycarbonyl-1,4-dihydro-5-methoxycarbonyl-6-methyl-4-(4-nitro)phenyl-2-(N-(3-(4,4,-diphenylpiperidin-1-yl)propyl)amino)methylpyridine, hydrochloride hydrate]
pKi alpha-1 1b [1, 9]: 6.87 | pKi alpha-2 2a [2, 10]: 6.13 | pKi alpha-2 2b [3, 11]: 6.04 | pKi alpha-2 2c [4, 12]: 6.79

COC(=O)C1=C(C)NC2=C(C(=O)N(CCCN3CCC(c4ccccc4)(c4ccccc4)CC3)C2)C1c1ccc([N+](=O)[O-])cc1.Cl.O (stereo not shown) [Example 91, 1,4,7,7-Tetrahydro-3-methoxycarbonyl-6-methyl-5-oxo-4-(4-nitrophenyl)-6-(3-(4,4-diphenylpiperidin-1-yl)) propylpyrrolo[3,4-b]pyridine, hydrochloride hydrate]
pKi alpha-1 1b [1, 9]: 6.54 | pKi alpha-2 2a [2, 10]: 6.06 | pKi alpha-2 2b [3, 11]: 6.00 | pKi alpha-2 2c [4, 12]: 6.31

CCC1=C(C(N)=O)C(c2ccc([N+](=O)[O-])cc2)C(C(=O)NCCCN2CCC(O)(c3ccccc3)CC2)=CN1CC.Cl.O (stereo not shown) [Example 101, 5-Carboxamido-1,6-diethyl-1,4-dihydro-3-{N-[3-(4-hydroxy-4-phenylpiperidin-1-yl)propyl]}carboxamido-4-(4-nitrophenyl)pyridine hydrochloride hydrate]
pKi alpha-1 1b [1, 9]: 6.22 | pKi alpha-2 2a [2, 10]: 5.89 | pKi alpha-2 2b [3, 11]: 6.18 | pKi alpha-2 2c [4, 12]: 6.04

CCC1=C(C(N)=O)C(c2ccc([N+](=O)[O-])cc2)C(C(=O)NCCCN2CCN(c3ccccc3)CC2)=C(CC)N1 (stereo not shown) [Example 104, 5-Carboxamido-2,6-diethyl-1,4-dihydro-4-(4-nitrophenyl)-3-{N-[3-(4-phenylpiperazin-1-yl)propyl]}carboxamido-pyridine hydrochloride hydrate]
Ki [1, 13]: 34.7 nM | Ki [2, 14]: 5.25 nM | Ki [3, 15]: 56.2 nM | Ki [4, 16]: 15.8 nM

CCC1=C(C(N)=O)C(c2ccc([N+](=O)[O-])cc2)C(C(=O)NCCCN2CCC(c3ccccc3)(c3ccccc3)CC2)=C(CC)N1 (stereo not shown) [Example 120, 5-Carboxamido-2,6-diethyl-1,4-dihydro-4-(4-nitrophenyl)-3-{N-[3-(4,4-diphenylpiperidin-1-yl)propyl]} carboxamidopyridine]
pKi alpha-1 1b [1, 9]: 6.61 | Ki [2, 14]: 363 nM | pKi alpha-2 2b [3, 11]: 6.59 | pKi alpha-2 2c [4, 12]: 6.72

CCC1=C(C(N)=O)C(c2ccc([N+](=O)[O-])cc2)C(C(=O)NCCCN2CCC(c3ccccc3)CC2)=C(CC)N1 (stereo not shown) [Example 121, 5-Carboxamido-2,6-diethyl-1,4-dihydro-4-(4-nitrophenyl)-3-{N-[3-(4-phenylpiperidin-1-yl)propyl]}carboxamidopyridine]
Ki [1, 13]: 72.4 nM | Ki [2, 14]: 363 nM | Ki [3, 15]: 257 nM | Ki [4, 16]: 191 nM

CCC1=C(C(N)=O)C(c2ccc([N+](=O)[O-])cc2)C(C(=O)NC2CCN(CCc3c[nH]c4ccccc34)CC2)=CN1CC (stereo not shown) [Example 122, 5-Carboxamido-1,4-dihydro-3-(N-{1-[2-(3-indolyl)ethyl]piperidin-4-yl}) carboxamido-1,6-diethyl-4-(4-nitrophenyl)pyridine]
pKi alpha-1 1b [1, 9]: 7.57 | pKi alpha-2 2a [2, 10]: 6.38 | pKi alpha-2 2b [3, 11]: 7.35 | pKi alpha-2 2c [4, 12]: 6.53

CCC1=C(C(N)=O)C(c2ccc([N+](=O)[O-])cc2)C(C(=O)NC2CCN(CCc3c[nH]c4ccccc34)CC2)=CN1CC (stereo not shown) [Example 123, 5-Carboxamido-1,6-diethyl-1,4-dihydro-3-(N-{1-[2-(3-indolyl)ethyl]piperidin-4-yl}) carboxamide-4-(4-nitrophenyl)pyridine]
pKi alpha-1 1b [1, 9]: 8.01 | pKi alpha-2 2a [2, 10]: 6.03 | pKi alpha-2 2b [3, 11]: 6.87 | pKi alpha-2 2c [4, 12]: 6.42

COc1ccccc1N1CCN(CCCNC(=O)C2=C(C)NC(C)=C(C(N)=O)C2c2ccc([N+](=O)[O-])cc2)CC1 (stereo not shown) [Example 124]
Ki [1, 13]: 89.1 nM | Ki [2, 14]: 22.4 nM | Ki [3, 15]: 200 nM | Ki [4, 16]: 44.7 nM

CCC1=C(C(=O)NC)C(c2ccc([N+](=O)[O-])cc2)C(C(=O)NCCCN2CCC(C#N)(c3ccccc3)CC2)=C(CC)N1 (stereo not shown) [Example 126, 3-{N-[3-(4-Cyano-4-phenylpiperidin-1-yl)propyl]}carboxamido-1,4-dihydro-2,6-diethyl-5-(1-methyl)carboxamido-4-(4-nitrophenyl)pyridine]
pKi alpha-1 1b [1, 9]: 5.37 | pKi alpha-2 2a [2, 10]: 5.33 | pKi alpha-2 2b [3, 11]: 5.63 | pKi alpha-2 2c [4, 12]: 5.36

CNC(=O)C1=C(C)NC(C)=C(C(=O)NCCCN2CCC(c3ccccc3)(c3ccccc3)CC2)C1c1ccc2c(c1)OCCO2 (stereo not shown) [Example 163]
Ki ([1]; PKi alpha-1 1b, cloned human receptor, LM(tk-) cell membranes, mean): 1020 nM | Ki ([2]; human receptor, LM(tk-) cell lysates, mean, read-out: PKi alpha-2 2a (converted)): 1170 nM | Ki ([3]; PKi alpha-2 2b, human receptor, LM(tk-) cell lysates, mean): 1700 nM | Ki ([4]; PKi alpha-2 2c, human receptor, LM(tk-) cell lysates, mean): 1230 nM
